PMC10178785 (ACS Chemical Biology, 2023)
Like-named read-outs stand apart in the source and are kept apart here.

How the values were obtained:
[1] = target: T1, SARS-CoV-2 Macro1 (Severe acute respiratory syndrome coronavirus 2, UniProt P0DTD1); format: binding
[2] = target: T2, MacroD1 (Homo sapiens, UniProt Q9BQ69); format: binding
[3] = target: T3, human MacroD2 (Homo sapiens, UniProt A1Z1Q3); format: binding
[4] = target: T4, VEEV Macro (Venezuelan equine encephalitis virus, UniProt P27282); format: binding
[5] = target: T5, CHIKV Macro (Chikungunya virus, UniProt Q8JUX6); format: binding
[6] = target: T1, SARS-CoV-2 Macro1; experiment: biochemical; format: binding
[7] = target: T2, MacroD1; experiment: biochemical; format: binding
[8] = target: T3, human MacroD2; experiment: biochemical; format: binding
[9] = target: T4, VEEV Macro; experiment: biochemical; format: binding
[10] = target: T5, CHIKV Macro; experiment: biochemical; format: binding
[11] = target: PARP9 Macro2 (Homo sapiens, UniProt Q8IXQ6); experiment: biochemical; format: binding
[12] = target: SARS Macro1 (Severe acute respiratory syndrome coronavirus 2, UniProt P0DTD1); format: biochemical, SARS-CoV-2
[13] = target: T2, MacroD1; format: biochemical
[14] = target: T2, MacroD1; settings: cited from earlier work

T5 sequence (Q8JUX6 1334-1493 limits assumed): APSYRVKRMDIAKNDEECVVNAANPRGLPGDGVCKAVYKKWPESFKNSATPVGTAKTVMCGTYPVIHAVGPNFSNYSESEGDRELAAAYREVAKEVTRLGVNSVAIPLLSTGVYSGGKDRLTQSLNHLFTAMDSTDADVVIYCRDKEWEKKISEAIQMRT
T2 sequence (Q9BQ69 141-322 limits assumed): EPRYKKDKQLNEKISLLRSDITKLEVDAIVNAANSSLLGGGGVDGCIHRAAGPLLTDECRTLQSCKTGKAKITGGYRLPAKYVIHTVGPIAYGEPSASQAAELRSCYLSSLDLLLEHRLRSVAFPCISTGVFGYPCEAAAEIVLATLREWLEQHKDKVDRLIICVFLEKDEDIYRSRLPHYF
T4 sequence (P27282 1330-1489 limits assumed): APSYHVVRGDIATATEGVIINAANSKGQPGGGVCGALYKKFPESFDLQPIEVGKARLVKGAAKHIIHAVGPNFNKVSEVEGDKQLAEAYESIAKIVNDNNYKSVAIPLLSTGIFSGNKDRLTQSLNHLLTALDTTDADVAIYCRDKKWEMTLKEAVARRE
T3 sequence (A1Z1Q3 59-240 limits assumed): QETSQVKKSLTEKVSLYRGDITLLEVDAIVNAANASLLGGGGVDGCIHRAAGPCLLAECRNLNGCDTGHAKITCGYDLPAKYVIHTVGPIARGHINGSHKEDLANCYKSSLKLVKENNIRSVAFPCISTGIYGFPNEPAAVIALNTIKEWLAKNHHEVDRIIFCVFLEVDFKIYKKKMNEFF

## CN(C)c1ccc2c(c1)Oc1cc(N(C)C)ccc1C21OC(=O)c2cc(C(=O)NCCCCCCNC(=O)CCc3cn([C@H]4O[C@H](COP(=O)(O)OP(=O)(O)OC[C@H]5O[C@@H](n6cnc7c(N)ncnc76)[C@H](O)[C@@H]5O)[C@@H](O)[C@H]4O)nn3)ccc21 [TAMRA-ADPr]
[1]
  mP shift: over 110 mP
[2]
  mP shift: more than 100 mP
[3]
  mP shift: more than 100 mP
[4]
  mP shift: ~70 mP
[5]
  mP shift: ~70 mP

## Nc1ncnc2c1ncn2[C@@H]1O[C@H](COP(=O)(O)OP(=O)(O)OC[C@H]2O[C@H](Oc3ccc([N+](=O)[O-])cc3)[C@H](O)[C@@H]2O)[C@@H](O)[C@H]1O [pNP-ADPr, ADP-ribosylated p-nitrophenol]
[6]
  IC50: 370 nM
  IC50 Fold Decrease Relative to ADPr: SARS Macro1: 40 fold
[7]
  IC50: 960 ± 70 nM
[8]
  IC50: 150 ± 10 nM
[9]
  IC50: 10.7 ± 0.9 µM
[10]
  IC50: 22.8 ± 5.7 µM
[11]
  IC50: 4.5 ± 0.4 µM
[12]
  MAR hydrolysis activity of SARS Macro1 in the presence of inhibitor: lowered MAR hydrolysis activity
[13]
  MAR hydrolysis activity of MacroD1 in the presence of inhibitor: lowered MAR hydrolysis activity

## N#C[C@@]1(c2ccc3c(N)ncnn23)O[C@H](CO)[C@@H](O)[C@H]1O [GS-441524]
[7]
  IC50: > 100000 nM
[8]
  IC50: > 100000 nM
[9]
  IC50: > 100 µM
[10]
  IC50: > 100 µM
[11]
  IC50: > 100 µM

## [N-]=[N+]=NC1OC(COP(=O)(O)OP(=O)(O)OCC2OC(n3cnc4c(N)ncnc43)C(O)C2O)C(O)C1O (stereo not drawn) [ADPr-N3]
[6]
  IC50: 7230 ± 940 nM
  IC50 Fold Decrease Relative to ADPr: SARS Macro1: ~2 fold

## Nc1ncnc2c1ncn2[C@@H]1O[C@H](COP(=O)(O)O)[C@@H](O)[C@H]1O[C@@H]1O[C@H](COP(=O)(O)O)[C@@H](O)[C@H]1O [iso-ADPr]
[6]
  Competition with the tracer in macrodomain binding: did not compete
[7]
  Competition with the tracer in macrodomain binding: did not compete
[8]
  Competition with the tracer in macrodomain binding: did not compete
[9]
  Competition with the tracer in macrodomain binding: did not compete
[10]
  Competition with the tracer in macrodomain binding: did not compete
[11]
  Competition with the tracer in macrodomain binding: did not compete

## Nc1ncnc2c1ncn2[C@@H]1O[C@H](COP(=O)(O)OP(=O)(O)OC[C@H]2OC(O)[C@H](O)[C@@H]2O)[C@@H](O)[C@H]1O (stereo partly drawn) [ADPr, adenine diphosphate ribose]
[7]; read-out: IC50 MacroD1
  IC50: 1420 ± 220 nM
[9]; read-out: IC50 VEEV Macro
  IC50: 18.3 ± 2.8 µM
[14]
  Kd: 720 nM

## Nc1ncnc2c1ncn2[C@@H]1O[C@H](COP(=O)(O)OP(=O)(O)OC[C@H]2O[C@H](Oc3ccc4c(C(F)(F)F)cc(=O)oc4c3)[C@H](O)[C@@H]2O)[C@@H](O)[C@H]1O [TFMU-ADPr, ADP-ribosylated trifluoromethyl umbelliferone]
[6]
  IC50: 590 nM
  IC50 Fold Decrease Relative to ADPr: SARS Macro1: 25 fold
[7]
  IC50: 290 ± 20 nM
[8]
  IC50: 90 ± 20 nM
[9]
  IC50: 4.24 ± 0.36 µM
[10]
  IC50: 37.6 ± 12.3 µM
[11]
  IC50: 10.9 ± 1.1 µM
[12]
  MAR hydrolysis activity of SARS Macro1 in the presence of inhibitor: lowered MAR hydrolysis activity
[13]
  MAR hydrolysis activity of MacroD1 in the presence of inhibitor: lowered MAR hydrolysis activity
